Experimental data taken from ChEMBL document CHEMBL3880404, “Aminopyrimidines useful as kinase inhibitors” (2007).

Legend:
Aurora kinase A = biological target: T1, Aurora kinase A (Homo sapiens, UniProt O14965); assay: Inhibition of Aurora-2 (unknown origin) pre-incubated with substrate for 10 mins before enzyme addition and measured after 10 mins post enzyme addition using Kemptide substrate by pyruvate kinase and LDH based standard coupled enzyme assay
T1 sequence (O14965 whole entry): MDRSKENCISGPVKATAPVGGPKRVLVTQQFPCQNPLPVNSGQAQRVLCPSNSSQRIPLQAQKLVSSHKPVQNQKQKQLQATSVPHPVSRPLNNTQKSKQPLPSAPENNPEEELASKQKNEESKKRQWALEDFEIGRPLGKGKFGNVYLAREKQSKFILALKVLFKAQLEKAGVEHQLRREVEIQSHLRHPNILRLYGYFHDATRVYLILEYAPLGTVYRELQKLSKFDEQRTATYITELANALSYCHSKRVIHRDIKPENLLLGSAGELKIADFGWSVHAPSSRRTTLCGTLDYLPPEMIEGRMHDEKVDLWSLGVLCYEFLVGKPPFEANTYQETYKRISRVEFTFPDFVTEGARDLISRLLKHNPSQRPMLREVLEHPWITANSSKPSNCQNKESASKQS

Aurora kinase B = Aurora kinase B (Homo sapiens, UniProt Q96GD4); assay: Inhibition of Aurora-1 (unknown origin) incubated for 10 mins using Kemptide substrate and [gamma-33P]-ATP measured after 3 hrs by liquid scintillation counting based radiometric assay
Sequence of Aurora kinase B (Q96GD4 whole entry): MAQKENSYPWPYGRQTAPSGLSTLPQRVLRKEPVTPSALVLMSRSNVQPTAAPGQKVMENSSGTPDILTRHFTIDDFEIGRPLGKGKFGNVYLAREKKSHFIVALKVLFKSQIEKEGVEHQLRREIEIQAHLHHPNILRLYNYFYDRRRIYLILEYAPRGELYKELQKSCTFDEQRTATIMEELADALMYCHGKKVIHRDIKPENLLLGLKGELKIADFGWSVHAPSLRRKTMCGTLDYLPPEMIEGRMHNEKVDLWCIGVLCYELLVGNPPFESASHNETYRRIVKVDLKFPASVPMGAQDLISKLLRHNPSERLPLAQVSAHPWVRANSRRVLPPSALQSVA

[1] = biological target: T2, Tyrosine-protein kinase JAK3 (Homo sapiens, UniProt P52333); assay: Inhibition of JAK3 (unknown origin) using poly(Glu)4Tyr substrate and [gamma-33P]-ATP incubated for 20 mins by Top-count assay
T2 sequence (P52333 whole entry): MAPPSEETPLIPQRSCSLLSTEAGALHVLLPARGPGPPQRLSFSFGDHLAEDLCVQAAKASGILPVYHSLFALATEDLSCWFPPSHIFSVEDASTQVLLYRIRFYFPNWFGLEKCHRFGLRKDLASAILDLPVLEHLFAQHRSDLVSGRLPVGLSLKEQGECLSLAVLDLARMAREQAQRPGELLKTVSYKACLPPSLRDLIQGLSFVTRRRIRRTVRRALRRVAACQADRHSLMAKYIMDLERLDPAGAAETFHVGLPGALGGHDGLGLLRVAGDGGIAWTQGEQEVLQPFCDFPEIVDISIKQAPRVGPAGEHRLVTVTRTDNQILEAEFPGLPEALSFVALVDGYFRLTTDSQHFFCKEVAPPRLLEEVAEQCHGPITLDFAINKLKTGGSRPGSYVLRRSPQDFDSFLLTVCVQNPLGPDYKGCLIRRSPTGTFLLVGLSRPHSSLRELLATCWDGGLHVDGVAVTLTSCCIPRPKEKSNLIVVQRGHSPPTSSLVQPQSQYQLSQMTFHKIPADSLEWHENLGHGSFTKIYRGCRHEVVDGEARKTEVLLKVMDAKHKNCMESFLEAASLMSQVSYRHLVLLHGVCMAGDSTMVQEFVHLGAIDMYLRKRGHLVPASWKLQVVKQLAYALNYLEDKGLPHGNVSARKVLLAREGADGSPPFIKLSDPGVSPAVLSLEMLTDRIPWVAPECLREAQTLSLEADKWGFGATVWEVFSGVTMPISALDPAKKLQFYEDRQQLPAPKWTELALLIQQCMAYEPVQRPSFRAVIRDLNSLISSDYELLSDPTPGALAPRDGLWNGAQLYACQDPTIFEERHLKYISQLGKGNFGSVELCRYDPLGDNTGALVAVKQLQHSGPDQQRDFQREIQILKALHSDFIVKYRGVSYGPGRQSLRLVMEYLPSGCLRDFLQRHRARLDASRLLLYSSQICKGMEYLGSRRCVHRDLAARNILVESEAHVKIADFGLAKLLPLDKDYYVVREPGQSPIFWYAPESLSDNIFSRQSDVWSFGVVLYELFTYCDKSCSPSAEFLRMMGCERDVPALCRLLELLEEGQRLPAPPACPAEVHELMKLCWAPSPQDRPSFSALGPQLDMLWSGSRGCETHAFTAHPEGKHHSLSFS

[2] = biological target: Tyrosine-protein kinase JAK2 (Homo sapiens, UniProt O60674); assay: Inhibition of JAK2 (unknown origin) using poly(Glu)4Tyr substrate and [gamma-33P]-ATP incubated for 20 mins by Top-count assay
Sequence of Tyrosine-protein kinase JAK2 (O60674 whole entry): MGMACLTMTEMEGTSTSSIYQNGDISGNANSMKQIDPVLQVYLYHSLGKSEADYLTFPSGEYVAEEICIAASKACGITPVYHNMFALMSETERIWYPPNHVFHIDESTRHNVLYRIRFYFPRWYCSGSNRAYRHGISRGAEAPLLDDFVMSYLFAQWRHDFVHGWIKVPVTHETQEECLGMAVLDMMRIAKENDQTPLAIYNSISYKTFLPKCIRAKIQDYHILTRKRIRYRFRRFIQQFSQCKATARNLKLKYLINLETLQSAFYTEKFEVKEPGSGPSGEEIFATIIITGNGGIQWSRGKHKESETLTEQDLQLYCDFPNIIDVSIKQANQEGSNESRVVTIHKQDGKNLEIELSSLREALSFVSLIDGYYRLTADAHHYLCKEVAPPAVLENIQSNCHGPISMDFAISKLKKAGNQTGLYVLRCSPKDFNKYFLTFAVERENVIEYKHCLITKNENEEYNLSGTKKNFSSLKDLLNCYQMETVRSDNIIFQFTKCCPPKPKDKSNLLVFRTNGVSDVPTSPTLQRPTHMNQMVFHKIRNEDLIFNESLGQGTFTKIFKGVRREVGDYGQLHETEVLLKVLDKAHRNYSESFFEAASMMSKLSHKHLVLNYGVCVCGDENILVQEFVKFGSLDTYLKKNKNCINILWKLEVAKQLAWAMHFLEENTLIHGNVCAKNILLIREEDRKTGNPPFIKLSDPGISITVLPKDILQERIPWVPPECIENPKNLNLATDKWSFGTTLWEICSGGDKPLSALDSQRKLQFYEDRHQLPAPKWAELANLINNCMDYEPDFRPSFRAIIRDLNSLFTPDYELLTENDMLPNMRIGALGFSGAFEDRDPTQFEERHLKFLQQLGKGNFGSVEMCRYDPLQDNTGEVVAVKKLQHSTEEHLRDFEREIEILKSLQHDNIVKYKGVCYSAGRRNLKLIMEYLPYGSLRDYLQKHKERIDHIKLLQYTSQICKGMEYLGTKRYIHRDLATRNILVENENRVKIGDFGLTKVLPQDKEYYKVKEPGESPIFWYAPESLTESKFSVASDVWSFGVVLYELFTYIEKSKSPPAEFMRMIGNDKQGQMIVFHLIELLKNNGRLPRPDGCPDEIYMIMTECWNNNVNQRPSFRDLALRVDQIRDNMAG

Row | Ki (Aurora kinase B) [µM] | Ki [1] [µM] | SMILES | Ki (Aurora kinase A) [µM] | Ki [2] [µM]
1 | < 0.5 | < 0.5 | Cc1cc(Nc2cc(N3CC(F)(C4CC4)C3)nc(O[C@H]3CCN(C(=O)OC(C)(C)C)C3)n2)[nH]n1 | < 0.01 | < 0.1
2 | < 0.5 | < 0.5 | Cc1cc(Nc2cc(N3CCC3)nc(O[C@H]3CCN(C(=O)OC(C)(C)C)C3)n2)[nH]n1 |  | 
3 |  |  | Cc1cc(Nc2cc(N3CC(F)(C4CC4)C3)nc(O[C@H]3CCN(C(=O)c4cc(Cl)ccc4F)C3)n2)n[nH]1 [MK-6592] | < 0.01 | < 0.1
